From patent US8247211B2, “Glycopeptide antibiotics” (American Cyanamid Company, priority 2001, dated 2012)
Values after ≈ are worked out from the molar mass of the structure shown.

How the values were obtained:
Test in all cases: In vitro antibacterial evaluation: minimum inhibitory concentration (MIC), broth dilution method
Format in all cases: cell-based
Details in all cases: 18 hours at 35° C.
[1] = tested on: Enterococcus sp.
Procedure, shortened: (§1)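 An MIC is reported for each organism as the least concentration giving inhibition, using broth dilution over 64-0.06 μg/mL with a 5×10^5 CFU/mL inoculum.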

[2] = tested on: Escherichia coli
Procedure, shortened: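 Values are minimum inhibitory concentrations, meaning the smallest antibiotic concentration that stops growth of the organism. They come from broth dilution in Muller-Hinton II […] per NCCLS guidance (M7-A2), using 5×10^5 CFU/mL and concentrations from 64 to 0.06 μg/mL.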

[3] = tested on: Staphylococcus sp.
Procedure, shortened: as §1

[4] = tested on: Streptococcus sp.
Procedure, shortened: as §1

[5] = Enterococcus faecalis (GC 2242)
[6] = Enterococcus faecalis (GC 2691)
[7] = Enterococcus faecalis (GC 3059)
[8] = broth dilution, inoculum 5×10^5 CFU/mL
[9] = Streptococcus agalactiae (GC 4564)
[10] = Streptococcus pneumoniae (ATCC 6301)
[11] = Streptococcus pneumoniae (GC 1894)
[12] = Streptococcus pneumoniae (GC 4565)
[13] = Streptococcus pyogenes (GC 4563)

CC(c1ccccc1)C1NC(=O)CNC(=O)C(CO)NC(=O)C(C(O)C2CNC(=N)N2C2OC(CO)C(O)C(O)C2O)NC(=O)C(C(O)C2CNC(=N)N2)NC(=O)C(Cc2ccc(OC3OC(CO)C(OC4OC(COCc5cccs5)C(O)C(O)C4O)C(O)C3O)cc2)NC1=O (stereo not drawn) [Example 244, Cyclo[glycyl-β-methylphenylalanyl-O-[4-O-[6-O-(2-thienylmethyl)hexopyranosyl]hexopyranosyl]tyrosyl-3-(2-iminoimidazolidin-4-yl)seryl-3-(3-hexopyranosyl-2-iminoimidazolidin-4-yl)serylseryl]]
MIC Enterococcus avium (GC 4558) [1]: 32 µg/mL (≈ 23 µM) | MIC Enterococcus faecalis (ATCC 29212) [1]: 32 µg/mL (≈ 23 µM) | MIC Enterococcus faecalis (GC 2242) [1, 5]: 32 µg/mL (≈ 23 µM) | MIC Enterococcus faecalis (GC 2691) [1, 6]: 32 µg/mL (≈ 23 µM) | MIC Enterococcus faecalis (GC 3059) [1, 7]: 64 µg/mL (≈ 46 µM) | MIC Enterococcus faecalis (GC 4552) [1]: 32 µg/mL (≈ 23 µM) | MIC Enterococcus faecalis (GC 4553) [1]: 32 µg/mL (≈ 23 µM) | MIC Enterococcus faecalis (GC 4554) [1]: 64 µg/mL (≈ 46 µM) | MIC Enterococcus faecalis (GC 6189) [1]: 32 µg/mL (≈ 23 µM) | MIC Enterococcus faecium (GC 2243) [1]: 32 µg/mL (≈ 23 µM) | MIC Enterococcus faecium (GC 4556) [1]: 32 µg/mL (≈ 23 µM) | MIC Enterococcus faecium (GC 4557) [1]: 4 µg/mL (≈ 2.87 µM) | MIC Enterococcus faecalis (GC 2242) [1, 8]: 32 µg/mL (≈ 23 µM) | MIC Enterococcus faecalis (GC 2691) [1, 8]: 32 µg/mL (≈ 23 µM) | MIC Enterococcus faecalis (GC 3059) [1, 8]: 64 µg/mL (≈ 46 µM) | MIC Escherichia coli (ATCC 25922) ([2]; Escherichia coli (ATCC 25922)): >64 µg/mL | MIC Escherichia coli (GC 4559) [2]: 64 µg/mL (≈ 46 µM) | MIC Escherichia coli (GC 4560) [2]: 2 µg/mL (≈ 1.44 µM) | MIC Coagulase Negative Staphylococcus (GC 4547) [3]: 4 µg/mL (≈ 2.87 µM) | MIC Coagulase Negative Staphylococcus (GC 4548) [3]: 2 µg/mL (≈ 1.44 µM) | MIC Coagulase Negative Staphylococcus (GC 4549) [3]: 2 µg/mL (≈ 1.44 µM) | MIC Coagulase Negative Staphylococcus (GC 4551) [3]: 4 µg/mL (≈ 2.87 µM) | MIC Coagulase Negative Staphylococcus (GC 6257) [3]: 2 µg/mL (≈ 1.44 µM) | MIC Staphylococcus aureus (ATCC 29213) [3]: 8 µg/mL (≈ 5.75 µM) | MIC Staphylococcus aureus (GC 1131) [3]: 8 µg/mL (≈ 5.75 µM) | MIC Staphylococcus aureus (GC 3051) [3]: 8 µg/mL (≈ 5.75 µM) | MIC Staphylococcus aureus (GC 3053) [3]: 16 µg/mL (≈ 11.5 µM) | MIC Staphylococcus aureus (GC 4541) [3]: 8 µg/mL (≈ 5.75 µM) | MIC Staphylococcus aureus (GC 4542) [3]: 1 µg/mL (≈ 0.719 µM) | MIC Staphylococcus aureus (GC 4544) [3]: 8 µg/mL (≈ 5.75 µM) | MIC Staphylococcus aureus (GC 4545) [3]: 8 µg/mL (≈ 5.75 µM) | MIC Staphylococcus aureus-SMITH (GC 4543) [3]: 4 µg/mL (≈ 2.87 µM) | MIC Staphylococcus haemolyticus (GC 4546) [3]: 4 µg/mL (≈ 2.87 µM) | MIC Streptococcus agalactiae (GC 4564) [4, 9]: 4 µg/mL (≈ 2.87 µM) | MIC Streptococcus pneumoniae (ATCC 6301) [4, 10]: 1 µg/mL (≈ 0.719 µM) | MIC Streptococcus pneumoniae (GC 1894) [4, 11]: 0.5 µg/mL (≈ 0.359 µM) | MIC Streptococcus pneumoniae (GC 4565) [4, 12]: 1 µg/mL (≈ 0.719 µM) | MIC Streptococcus pyogenes (GC 4563) [4, 13]: 2 µg/mL (≈ 1.44 µM) | MIC Streptococcus agalactiae (GC 4564) [4, 8]: 4 µg/mL (≈ 2.87 µM) | MIC Streptococcus pneumoniae (ATCC 6301) [4, 8]: 1 µg/mL (≈ 0.719 µM) | MIC Streptococcus pneumoniae (GC 1894) [4, 8]: 0.5 µg/mL (≈ 0.359 µM) | MIC Streptococcus pneumoniae (GC 4565) [4, 8]: 1 µg/mL (≈ 0.719 µM) | MIC Streptococcus pyogenes (GC 4563) [4, 8]: 2 µg/mL (≈ 1.44 µM)

COc1ccc2cc(COC3C(OC4C(CO)OC(Oc5ccc(CC6NC(=O)C(C(C)c7ccccc7)NC(=O)CNC(=O)C(CO)NC(=O)C(CC7CNC(=N)N7C7OC(CO)C(O)C(O)C7O)NC(=O)C(CC7CNC(=N)N7)NC6=O)cc5)C(O)C4O)OC(CO)C(O)C3O)ccc2c1 (centres unmarked) [Example 245c, Cyclo[3-(2-iminoimidazolidin-4-yl)alanyl-3-(3-hexopyranosyl-2-iminoimidazolidin-4-yl)-alanylserylglycyl-62-methylphenylalanyl-O-[4-O-[2-O-[(6-methoxy-2-naphthyl)methyl]-hexopyranosyl]hexopyranosyl]tyrosyl]]
MIC Enterococcus faecium (GC 4557) [1]: 64 µg/mL (≈ 44.6 µM) | MIC Escherichia coli (GC 4560) [2]: 32 µg/mL (≈ 22.3 µM) | MIC Coagulase Negative Staphylococcus (GC 4549) [3]: 64 µg/mL (≈ 44.6 µM) | MIC Coagulase Negative Staphylococcus (GC 6257) [3]: 64 µg/mL (≈ 44.6 µM) | MIC Streptococcus pneumoniae (ATCC 6301) [4, 10]: 64 µg/mL (≈ 44.6 µM) | MIC Streptococcus pneumoniae (GC 1894) [4, 11]: 32 µg/mL (≈ 22.3 µM) | MIC Streptococcus pneumoniae (GC 4565) [4, 12]: 64 µg/mL (≈ 44.6 µM) | MIC Streptococcus pneumoniae (ATCC 6301) [4, 8]: 64 µg/mL (≈ 44.6 µM) | MIC Streptococcus pneumoniae (GC 1894) [4, 8]: 32 µg/mL (≈ 22.3 µM) | MIC Streptococcus pneumoniae (GC 4565) [4, 8]: 64 µg/mL (≈ 44.6 µM)

CC(c1ccccc1)C1NC(=O)CNC(=O)C(CO)NC(=O)C(CC2CNC(=N)N2C2OC(CO)C(O)C(O)C2O)NC(=O)C(CC2CNC(=N)N2)NC(=O)C(Cc2ccc(OC3OC(CO)C(OC4OC(COCc5ccc(OCc6ccccc6)cc5)C(O)C(O)C4O)C(O)C3O)cc2)NC1=O (stereo not drawn) [Example 246, Cyclo[3-(2-iminoimidazolidin-4-yl)alanyl-3-(3-hexopyranosyl-2-iminoimidazolidin-4-yl)-alanylserylglycyl-β-methylphenylalanyl-O-[4-O-[6-O-[4-(phenylmethoxy)benzyl]hexopyranosyl]hexopyranosyl]tyrosyl]]
MIC Enterococcus avium (GC 4558) [1]: 8 µg/mL (≈ 5.48 µM) | MIC Enterococcus faecalis (ATCC 29212) [1]: 16 µg/mL (≈ 11 µM) | MIC Enterococcus faecalis (GC 2242) [1, 5]: 16 µg/mL (≈ 11 µM) | MIC Enterococcus faecalis (GC 2691) [1, 6]: 32 µg/mL (≈ 21.9 µM) | MIC Enterococcus faecalis (GC 3059) [1, 7]: 32 µg/mL (≈ 21.9 µM) | MIC Enterococcus faecalis (GC 4552) [1]: 16 µg/mL (≈ 11 µM) | MIC Enterococcus faecalis (GC 4553) [1]: 8 µg/mL (≈ 5.48 µM) | MIC Enterococcus faecalis (GC 4554) [1]: 32 µg/mL (≈ 21.9 µM) | MIC Enterococcus faecalis (GC 6189) [1]: 16 µg/mL (≈ 11 µM) | MIC Enterococcus faecium (GC 2243) [1]: 16 µg/mL (≈ 11 µM) | MIC Enterococcus faecium (GC 4556) [1]: 16 µg/mL (≈ 11 µM) | MIC Enterococcus faecium (GC 4557) [1]: 4 µg/mL (≈ 2.74 µM) | MIC Enterococcus faecalis (GC 2242) [1, 8]: 16 µg/mL (≈ 11 µM) | MIC Enterococcus faecalis (GC 2691) [1, 8]: 32 µg/mL (≈ 21.9 µM) | MIC Enterococcus faecalis (GC 3059) [1, 8]: 32 µg/mL (≈ 21.9 µM) | MIC Escherichia coli (GC 4559) [2]: 64 µg/mL (≈ 43.8 µM) | MIC Escherichia coli (GC 4560) [2]: 4 µg/mL (≈ 2.74 µM) | MIC Coagulase Negative Staphylococcus (GC 4547) [3]: 4 µg/mL (≈ 2.74 µM) | MIC Coagulase Negative Staphylococcus (GC 4548) [3]: 4 µg/mL (≈ 2.74 µM) | MIC Coagulase Negative Staphylococcus (GC 4549) [3]: 4 µg/mL (≈ 2.74 µM) | MIC Coagulase Negative Staphylococcus (GC 4551) [3]: 8 µg/mL (≈ 5.48 µM) | MIC Coagulase Negative Staphylococcus (GC 6257) [3]: 2 µg/mL (≈ 1.37 µM) | MIC Staphylococcus aureus (ATCC 29213) [3]: 4 µg/mL (≈ 2.74 µM) | MIC Staphylococcus aureus (GC 1131) [3]: 8 µg/mL (≈ 5.48 µM) | MIC Staphylococcus aureus (GC 3051) [3]: 4 µg/mL (≈ 2.74 µM) | MIC Staphylococcus aureus (GC 3053) [3]: 4 µg/mL (≈ 2.74 µM) | MIC Staphylococcus aureus (GC 4541) [3]: 4 µg/mL (≈ 2.74 µM) | MIC Staphylococcus aureus (GC 4542) [3]: 4 µg/mL (≈ 2.74 µM) | MIC Staphylococcus aureus (GC 4544) [3]: 8 µg/mL (≈ 5.48 µM) | MIC Staphylococcus aureus (GC 4545) [3]: 4 µg/mL (≈ 2.74 µM) | MIC Staphylococcus aureus-SMITH (GC 4543) [3]: 4 µg/mL (≈ 2.74 µM) | MIC Staphylococcus haemolyticus (GC 4546) [3]: 4 µg/mL (≈ 2.74 µM) | MIC Streptococcus agalactiae (GC 4564) [4, 9]: 2 µg/mL (≈ 1.37 µM) | MIC Streptococcus pneumoniae (ATCC 6301) [4, 10]: 2 µg/mL (≈ 1.37 µM) | MIC Streptococcus pneumoniae (GC 1894) [4, 11]: 0.5 µg/mL (≈ 0.343 µM) | MIC Streptococcus pneumoniae (GC 4565) [4, 12]: 2 µg/mL (≈ 1.37 µM) | MIC Streptococcus pyogenes (GC 4563) [4, 13]: 4 µg/mL (≈ 2.74 µM) | MIC Streptococcus agalactiae (GC 4564) [4, 8]: 2 µg/mL (≈ 1.37 µM) | MIC Streptococcus pneumoniae (ATCC 6301) [4, 8]: 2 µg/mL (≈ 1.37 µM) | MIC Streptococcus pneumoniae (GC 1894) [4, 8]: 0.5 µg/mL (≈ 0.343 µM) | MIC Streptococcus pneumoniae (GC 4565) [4, 8]: 2 µg/mL (≈ 1.37 µM) | MIC Streptococcus pyogenes (GC 4563) [4, 8]: 4 µg/mL (≈ 2.74 µM)
